Read-outs that look alike come from different tables or passages of the source.

Results on 18 compounds are retold here after patent publication US20100152261A1 (MITSUBISHI TANABE PHARMA CORPORATION, priority 2005, published 2010).

Experiment [1] has as its system Bronchoconstriction in Guinea Pigs (induced with acetylcholine). Put plainly: Effect on bronchoconstriction in guinea pigs (via inhalation administration), Konzett method. In kind it is in vivo. The following applies: guinea pig, intratracheal administration 10 μL g/head, 24 hours after administration, acetylcholine 4 μg/kg i.v., versus control group; for inhibition in vivo at 0.01 mg: Cavia porcellus, iv, read-out: Percent of inhibition of bronchoconstriction (%). The procedure: Effect on Bronchoconstriction in Guinea Pigs (Via Inhalation Administration)
The test was performed according to the method of Konzett et al. (Arch. Exp. Path Pharmak., 1940, 195, 71-74). Male Hartley guinea pigs (350 to 600 g) were anesthetized with urethane (1.8 g/kg, i.p.), and then a cannula for drug administration was inserted into each left jugular vein. After the immobilization with decamethonium (2 mg/kg, i.v.), a tracheal cannula was inserted, and controlled respiration was attained by a respirator (Harvard). Bronchoconstriction was measured as changes of airway pressure with a pressure transducer (Nihon Kohden Corp.). Each test compound was administered (10 μL g/head) from dissected trachea by using a device for intratracheal administration of liquid for guinea pigs (Penn Century), and after suture, the animals were returned to usual breeding. After 24 hours, acetylcholine (4 μg/kg, i.v.) was administered to induce bronchoconstriction, and inhibitory activity on bronchoconstriction was calculated as percent inhibition comparing to the change of airway pressure in control group was obtained.

The next experiment concerns the target T1, muscarinic M3 receptor (Cavia porcellus, UniProt H0W1Z3).
T1 construct: trachea was excised, and cut at every two tracheal cartilages to prepare tissue specimens; from tissue; host or cells: isolated guinea pig trachea (male Hartley)
Nature of the experiment: Muscarinic M3 antagonistic action in isolated guinea pig trachea (carbachol-induced contraction, Schild method). In kind it is cell-based. The following applies: compound applied 15 minutes before carbachol. As to the method:
Muscarinic M3 Antagonistic Action in Isolated Guinea Pig Trachea
Male Hartley guinea pigs (350 to 600 g) were sacrificed by bleeding, and trachea was excised, and cut at every two tracheal cartilages to prepare tissue specimens. Each tissue specimen was kept warm at 37° C., suspended with a resting tension of 1 g in a 5-mL Magnus bath filled with a Krebs carbonate buffer containing indomethacin (1 μM) bubbled with 95% O2/5% CO2, and left for 60 minutes as a stabilization period. […] After the measurement, the tissue specimen was immediately washed, and left for 60 minutes as a stabilization period before the next contraction reaction, and the tissue specimen of which EC50 for the carbachol-induced contraction reaction was stabilized was considered as a control. Each test compound was applied 15 minutes before the addition of carbachol. The affinity (pA2) of the test compound was obtained by the Schild method (Arunlakshana, O. and Schild, H. O., Brit. J. Pharmacol., 1959, 14, 48-58).

In a further experiment the target is T2, muscarinic M2 receptor (Cavia porcellus, UniProt H0VRN8).
T2 construct: left atria were excised to prepare tissue specimens; from tissue; host or cells: isolated guinea pig left atrium (male Hartley)
T2 sequence (H0VRN8 1-466): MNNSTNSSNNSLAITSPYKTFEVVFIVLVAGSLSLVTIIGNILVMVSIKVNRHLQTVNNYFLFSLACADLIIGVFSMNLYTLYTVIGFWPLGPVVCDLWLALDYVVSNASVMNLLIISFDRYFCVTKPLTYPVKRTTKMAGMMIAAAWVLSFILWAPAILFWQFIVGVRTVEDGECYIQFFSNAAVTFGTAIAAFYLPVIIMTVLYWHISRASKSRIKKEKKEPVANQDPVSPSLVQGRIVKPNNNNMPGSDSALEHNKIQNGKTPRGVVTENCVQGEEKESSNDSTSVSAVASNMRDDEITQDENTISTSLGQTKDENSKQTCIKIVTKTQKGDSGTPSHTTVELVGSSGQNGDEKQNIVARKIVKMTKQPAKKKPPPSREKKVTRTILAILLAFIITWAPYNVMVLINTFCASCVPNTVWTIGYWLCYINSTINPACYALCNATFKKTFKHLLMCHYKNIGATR
Nature of the experiment: Muscarinic M2 antagonistic action in isolated guinea pig left atrium (carbachol-induced relaxation, Schild method). The following applies: compound applied 30 minutes before carbachol. In kind it is cell-based. As to the method: Muscarinic M2 Antagonistic Action in Isolated Guinea Pig Left Atrium […] Each tissue specimen was kept warm at 37° C., suspended with a resting tension of 0.5 g in a 5-mL Magnus bath filled with a Krebs carbonate buffer bubbled with 95% O2/5% CO2. Then, contraction evoked by field electrical stimulation (4 Hz, 2 msec, 1.5×threshold potential) was measured. After a stabilization period of 60 minutes, carbachol-induced relaxation was isometrically measured and recorded by the cumulative method from 10^−8 M with an interval of 90 seconds for one concentration in an equal ratio of 3. After the measurement, the tissue specimen was immediately washed, and left for 45 minutes as a stabilization period before the next observation. The tissue specimen of which EC50 for the carbachol-induced relaxation was stabilized was considered as a control. Each test compound was applied 30 minutes before the addition of carbachol. The affinity (pA2) of the test compound was obtained in the same manner as in the case of the trachea.

Setting [2] is: isolated guinea pig trachea, read-out: pA2 Trachea M3 (converted).
The mark [3] stands for this setting: isolated guinea pig left atrium, read-out: pA2 Left atrium M2 (converted).
Setting [4] is: isolated guinea pig left atrium.
Setting [5] is: pA2 Trachea M3, isolated guinea pig trachea.
Setting [6] is: pA2 Left atrium M2, isolated guinea pig left atrium.

T1 sequence (H0W1Z3 1-590): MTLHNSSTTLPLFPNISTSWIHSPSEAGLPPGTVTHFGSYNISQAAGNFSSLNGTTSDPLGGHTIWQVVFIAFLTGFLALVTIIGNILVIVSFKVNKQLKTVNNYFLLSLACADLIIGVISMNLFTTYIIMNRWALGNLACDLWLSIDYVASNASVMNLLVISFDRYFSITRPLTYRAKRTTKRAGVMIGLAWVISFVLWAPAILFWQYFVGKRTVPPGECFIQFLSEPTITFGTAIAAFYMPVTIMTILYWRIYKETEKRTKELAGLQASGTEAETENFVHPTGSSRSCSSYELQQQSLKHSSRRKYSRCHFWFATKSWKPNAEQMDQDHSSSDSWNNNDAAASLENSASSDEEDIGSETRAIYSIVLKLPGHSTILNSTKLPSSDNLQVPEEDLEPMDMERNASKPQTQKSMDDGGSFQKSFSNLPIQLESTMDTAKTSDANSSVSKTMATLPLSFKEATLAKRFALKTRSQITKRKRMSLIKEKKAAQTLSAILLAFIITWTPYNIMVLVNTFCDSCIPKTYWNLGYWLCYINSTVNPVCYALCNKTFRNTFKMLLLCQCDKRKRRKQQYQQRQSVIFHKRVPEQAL

On to `CC1=NCCN1[C@@H]1CC[C@H](C(C(N)=O)(c2ccccc2)c2ccccc2)C1` (relative stereo) [Reference Example 13, 2-(cis-3-(2-Methyl-4,5-dihydroimidazol-1-yl)cyclopentyl)-2,2-diphenylacetamide, reference compound], for which the inhibition in vivo at 0.01 mg in experiment [1] was found to be 20%. Also, the values for the Kb at muscarinic M3 receptor (setting [2]) and on muscarinic M2 receptor (setting [3]) were 5.01 nM and 79.4 nM, respectively.

For the compound `Cc1n(CC2CO2)cc[n+]1[C@H]1CC[C@@H](C(C(N)=O)(c2ccccc2)c2ccccc2)C1.[Br-]` (relative stereo) [Example 22], the “Percent of inhibition of bronchoconstriction (%)” value in experiment [1] amounted to 80%. Further, the “pA2 Trachea M3” value at muscarinic M3 receptor (isolated guinea pig trachea) came to 9. In addition, the “pA2 Left atrium M2” value on muscarinic M2 receptor (setting [4]) amounted to 7.7.

With `Cc1n([C@@H]2CC[C@H](C(C(N)=O)(c3ccccc3)c3ccccc3)C2)cc[n+]1Cc1ccccc1` [Example 91, 3-((1R,3S)-3-(Carbamoyl(diphenyl)methyl)cyclopentyl)-1-benzyl-2-methyl-3H-imidazol-1-ium bromide], the inhibition in vivo at 0.01 mg in experiment [1] is 100%. Besides, the Kb is 0.1 nM on muscarinic M3 receptor (setting [5]) and 3.98 nM on muscarinic M2 receptor (setting [6]).

For the compound `Cc1n([C@H]2CC[C@@H](C(C(N)=O)(c3ccccc3)c3ccccc3)C2)cc[n+]1Cc1ccccc1` [Example 83, 3-((1S,3R)-3-(Carbamoyl(diphenyl)methyl)cyclopentyl)-1-benzyl-2-methyl-3H-imidazol-1-ium bromide], the inhibition in vivo at 0.01 mg in experiment [1] was 100%. Moreover, the Kb is 0.0794 nM on muscarinic M3 receptor (setting [2]) and 5.01 nM at muscarinic M2 receptor (setting [3]).

For the compound `CC1=[N+](C)CCN1[C@H]1CC[C@@H](C(C(N)=O)(c2ccccc2)c2ccccc2)C1` (relative stereo) [Example 56, 3-(cis-3-(Carbamoyl(diphenyl)methyl)cyclopentyl)-1,2-dimethyl-4,5-dihydro-3H-imidazol-1-ium iodide], the inhibition in vivo at 0.01 mg in experiment [1] came to 100%. Also, the Kb on muscarinic M3 receptor (setting [5]) is 2.51 nM; on muscarinic M2 receptor (setting [6]), 31.6 nM.

Regarding `Cc1n([C@H]2CC[C@@H](C(C(N)=O)(c3ccccc3)c3ccccc3)C2)cc[n+]1CC1CCC1` (relative stereo) [Example 40, 3-(cis-3-(Carbamoyl(diphenyl)methyl)cyclopentyl)-1-cyclobutylmethyl-2-methyl-3H-imidazol-1-ium bromide], in experiment [1], the inhibition in vivo at 0.01 mg is 100%. Besides, the Kb at muscarinic M3 receptor (setting [5]) is 0.398 nM; on muscarinic M2 receptor (setting [6]), 7.94 nM.

On to `Cc1nccn1[C@@H]1CC[C@H](C(C(N)=O)(c2ccccc2)c2ccccc2)C1` (relative stereo) [Reference Example 5, 2-(cis-3-(2-Methylimidazol-1-yl)cyclopentyl)-2,2-diphenylacetamide, reference compound], for which the inhibition in vivo at 0.01 mg in experiment [1] stood at 0%. Besides, the values for the Kb on muscarinic M3 receptor (setting [2]) and at muscarinic M2 receptor (setting [3]) were 0.794 nM and 50.1 nM, respectively.

As for `COCC[n+]1ccn([C@H]2CC[C@@H](C(C(N)=O)(c3ccccc3)c3ccccc3)C2)c1C` (relative stereo) [Example 26, 3-(cis-3-(Carbamoyl(diphenyl)methyl)cyclopentyl)-1-(2-methoxy-ethyl)-2-methyl-3H-imidazol-1-ium bromide], the inhibition in vivo at 0.01 mg in experiment [1] was found to be 70%. Also, the Kb is 0.2 nM on muscarinic M3 receptor (setting [5]) and 12.6 nM on muscarinic M2 receptor (setting [6]).

Consider `Cc1n([C@H]2CC[C@@H](C(C(N)=O)(c3ccccc3)c3ccccc3)C2)cc[n+]1C(F)F` (relative stereo) [Example 37, 3-(cis-3-(Carbamoyl(diphenyl)methyl)cyclopentyl)-1-difluoromethyl-2-methyl-3H-imidazol-1-ium bromide], for which, in experiment [1], the inhibition in vivo at 0.01 mg stood at 80%. This compound had a Kb at muscarinic M3 receptor (setting [5]) of 0.794 nM.

Regarding `Cc1n([C@H]2CC[C@@H](C(C(N)=O)(c3ccccc3)c3ccccc3)C2)cc[n+]1CC1CC1` (relative stereo) [Example 30, 3-(cis-3-(Carbamoyl(diphenyl)methyl)cyclopentyl)-1-cyclopropylmethyl-2-methyl-3H-imidazol-1-ium bromide], the inhibition in vivo at 0.01 mg in experiment [1] came out at 80%.

Take `Cc1n([C@H]2CC[C@@H](C(C(N)=O)(c3ccccc3)c3ccccc3)C2)cc[n+]1CCO.[Br-]` [Example 84, 3-((1S,3R)-3-(Carbamoyl(diphenyl)methyl)cyclopentyl)-1-hydroxyethyl-2-methyl-3H-imidazol-1-ium bromide]: the “pA2 Trachea M3” value on muscarinic M3 receptor (isolated guinea pig trachea) is 8.2. In addition, the “pA2 Left atrium M2” value at muscarinic M2 receptor (setting [4]) is listed as 6.3.

With `Cc1n([C@H]2CC[C@H](C(C(N)=O)(c3ccccc3)c3ccccc3)C2)cc[n+]1Cc1ccccc1` (single isomer, unassigned) [Example 98, 1-Benzyl-3-(trans-3-(carbamoyl(diphenyl)methyl)cyclopentyl)-2-methyl-3H-imidazol-1-ium bromide], the Kb at muscarinic M3 receptor (setting [5]) is 0.398 nM; at muscarinic M2 receptor (setting [6]), 15.8 nM.

`Cc1n([C@H]2CC[C@H](C(C(N)=O)(c3ccccc3)c3ccccc3)C2)cc[n+]1CCC(C)C` (relative stereo) [Example 73, 3-(trans-3-(Carbamoyl(diphenyl)methyl)cyclopentyl)-2-methyl-1-(3-methylbutyl)-3H-imidazol-1-ium bromide]: the Kb was 0.631 nM on muscarinic M3 receptor (setting [5]) and 6.31 nM on muscarinic M2 receptor (setting [6]).

For the compound `CC#CC[n+]1ccn([C@H]2CC[C@@H](C(C(N)=O)(c3ccccc3)c3ccccc3)C2)c1C` [Example 82], the figures for the Kb on muscarinic M3 receptor (setting [5]) and at muscarinic M2 receptor (setting [6]) were 0.794 nM and 63.1 nM, respectively.

`C[n+]1cn([C@H]2CC[C@@H](C(C(N)=O)(c3ccccc3)c3ccccc3)C2)cn1` (relative stereo) [Example 69, 4-(cis-3-(Carbamoyl(diphenyl)methyl)cyclopentyl)-1-methyl-4H-[1,2,4]triazol-1-ium iodide]: the Kb on muscarinic M3 receptor (setting [5]) is 0.794 nM; at muscarinic M2 receptor (setting [6]), 25.1 nM.

On to `Cc1n([C@H]2CC[C@H](C(C#N)(c3ccccc3)c3ccccc3)C2)cc[n+]1Cc1ccccc1` (relative stereo) [Example 87, 1-Benzyl-3-(trans-3-(cyano(diphenyl)methyl)cyclopentyl)-2-methyl-3H-imidazol-1-ium bromide], for which the values for the Kb on muscarinic M3 receptor (setting [5]) and on muscarinic M2 receptor (setting [6]) were 1 nM and 50.1 nM, respectively.

Regarding `COCC[n+]1ccn([C@H]2CC[C@H](C(C(N)=O)(c3ccccc3)c3ccccc3)C2)c1C` (relative stereo) [Example 67, 3-(trans-3-(Carbamoyl(diphenyl)methyl)cyclopentyl)-1-(2-methoxyethyl)-2-methyl-3H-imidazol-1-ium bromide], the Kb was 1.26 nM on muscarinic M3 receptor (setting [5]) and 79.4 nM on muscarinic M2 receptor (setting [6]).

With `C[n+]1ccn([C@H]2CC[C@@H](C(C(N)=O)(c3ccccc3)c3ccccc3)C2)c1` (relative stereo) [Example 5, 3-(cis-3-(Carbamoyl(diphenyl)methyl)cyclopentyl)-1-methyl-3H-imidazol-1-ium iodide], the Kb on muscarinic M3 receptor (setting [5]) is 2.51 nM; at muscarinic M2 receptor (setting [6]), 31.6 nM.
